Test results as given in the supplement of paper PMC7108870.

Tests used:
HEK293sieSTAT3(Y640F) [1] = assay: drug sensitivity score (DSS), cytotoxicity CellTox Green (DSS (dimensionless)); higher = more cytotoxic; extreme values may be limits of the assay; settings: 72 h; STAT3 variant: Y640F (constitutively active)
Outline: (§1)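 HEK293 cells bearing a STAT3-dependent luciferase reporter and overexpressing wild-type or mutant STAT3 were incubated with compounds at 5 concentrations in 10-fold steps for 72 hours at 37°C and 5% CO2. CellTox Green fluorescence and then CellTiter-Glo luminescence were measured, and values were normalised to negative and positive control wells. In Breeze, a drug sensitivity score was computed from the dose-response curve area.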

HEK293sieSTAT3(wt) [2] = assay: as above; settings: 72 h; STAT3 variant: wild type
Outline: as §1

HEK293sieSTAT3(Y640F) [3] = assay: drug sensitivity score (DSS), viability CellTiter-Glo (DSS (dimensionless)); higher = more growth inhibition; extreme values may be limits of the assay; settings: 72 h; STAT3 variant: Y640F (constitutively active)
Outline: as §1

HEK293sieSTAT3(wt) [4] = assay: as above; settings: 72 h; STAT3 variant: wild type
Outline: as §1

| Structure (SMILES) | drug sensitivity score (HEK293sieSTAT3(Y640F) [1]) | drug sensitivity score (HEK293sieSTAT3(wt) [2]) | drug sensitivity score (HEK293sieSTAT3(Y640F) [3]) | drug sensitivity score (HEK293sieSTAT3(wt) [4]) |
| --- | --- | --- | --- | --- |
| CNC(=O)c1ccccc1Sc1ccc2c(/C=C/c3ccccn3)n[nH]c2c1 [Axitinib] (top concentration tested 10000 nM) | 4.38 | 7.83 | 5.84 | 8.07 |
| Nc1ncn([C@@H]2O[C@H](CO)[C@@H](O)[C@H]2O)c(=O)n1 [Azacitidine] (top concentration tested 10000 nM) | 0 | 0.87 | 2.86 | 2.72 |
| Cc1cc(-c2nc(-c3ccc(OC(F)(F)F)cc3)no2)nn1Cc1ccnc(N2CCN(C3CC3)CC2)c1 [BAY 87-2243] (top concentration tested 1000 nM) | 0 | 0 | 12.6 | 12.5 |
| Nc1nc(Nc2ccc3c(c2)CC[C@@H](N2CCCC2)CC3)nn1-c1cc2c(nn1)-c1ccccc1CCC2 [BGB324] (top concentration tested 10000 nM) | 6.14 | 11.9 | 10.2 | 12 |
| CC[C@@H]1C(=O)N(C)c2cnc(Nc3ccc(C(=O)NC4CCN(C)CC4)cc3OC)nc2N1C1CCCC1 [BI 2536] (top concentration tested 1000 nM) | 2.98 | 20.1 | 23.5 | 24.7 |
| COc1c(C)cnc(Cn2cnc3c(Cl)nc(N)nc32)c1C [BIIB021] (top concentration tested 10000 nM) | 9.95 | 24.2 | 24.6 | 27.9 |
| O=C(Nc1cccc(Nc2ncc(Br)c(NCCc3cnc[nH]3)n2)c1)N1CCCC1 [BX-912] (top concentration tested 10000 nM) | 0 | 0 | 5.58 | 6.67 |
| Cc1ccc(NC(=O)c2ccc(CN3CC[C@H](N(C)C)C3)c(C(F)(F)F)c2)cc1Nc1nccc(-c2cncnc2)n1 [Bafetinib] (top concentration tested 1000 nM) | 0 | 0 | 1.34 | 2.29 |
| CCS(=O)(=O)N1CC(CC#N)(n2cc(-c3ncnc4[nH]ccc34)cn2)C1 [Baricitinib] (top concentration tested 2500 nM) | 0 | 0.42 | 2.8 | 1.02 |
| O=C(/C=C/c1cccc(S(=O)(=O)Nc2ccccc2)c1)NO [Belinostat] (top concentration tested 10000 nM) | 8.83 | 8.71 | 16.9 | 13.1 |
| Cn1c(CCCC(=O)O)nc2cc(N(CCCl)CCCl)ccc21 [Bendamustine] (top concentration tested 10000 nM) | 0 | 0 | 0.53 | 3.94 |
| N#CC(c1ccnc(OCc2ccc(CN3CCOCC3)cc2)n1)c1nc2ccccc2s1 (stereo not drawn) [Bentamapimod] (top concentration tested 10000 nM) | 0.96 | 0 | 5.3 | 8.85 |
| C=C(c1ccc(C(=O)O)cc1)c1cc2c(cc1C)C(C)(C)CCC2(C)C [Bexarotene] (top concentration tested 10000 nM) | 0 | 0 | 2 | 3.75 |
| CC(O)(CS(=O)(=O)c1ccc(F)cc1)C(=O)Nc1ccc(C#N)c(C(F)(F)F)c1 (stereo not drawn) [Bicalutamide] (top concentration tested 10000 nM) | 0 | 0 | 3.98 | 4.54 |
| CCNC(=O)CCC/C=C\C[C@@H]1[C@@H](/C=C/[C@@H](O)CCc2ccccc2)[C@H](O)C[C@@H]1O [Bimatoprost] (top concentration tested 5500 nM) | 0 | 0 | 0 | 0 |
| Cn1cnc2c(F)c(Nc3ccc(Br)cc3F)c(C(=O)NOCCO)cc21 [Binimetinib] (top concentration tested 1000 nM) | 0 | 0 | 1.87 | 0.52 |
| CC[C@H](NC(=O)[C@H](C)NC)C(=O)N1C[C@@H](O)C[C@H]1Cc1c(-c2[nH]c3cc(F)ccc3c2C[C@@H]2C[C@H](O)CN2C(=O)[C@H](CC)NC(=O)[C@H](C)NC)[nH]c2cc(F)ccc12 [Birinapant] (top concentration tested 1000 nM) | 19.5 | 30.4 | 7.4 | 15.6 |
| Cc1c(N)nc([C@H](CC(N)=O)NC[C@H](N)C(N)=O)nc1C(=O)N[C@H](C(=O)N[C@H](C)[C@@H](O)[C@H](C)C(=O)N[C@H](C(=O)NCCc1nc(-c2nc(C(=O)NCCC[S+](C)C)cs2)cs1)[C@@H](C)O)[C@@H](OC1OC(CO)C(O)C(O)C1OC1OC(CO)C(O)C(OC(N)=O)C1O)c1cnc[nH]1 (stereo partly drawn) [Bleomycin] (top concentration tested 10000 nM) | 4.25 | 5.92 | 20.1 | 18.8 |
| CC(C)C[C@H](NC(=O)[C@H](Cc1ccccc1)NC(=O)c1cnccn1)B(O)O [Bortezomib] (top concentration tested 1000 nM) | 30.6 | 31.7 | 29.8 | 32.5 |
| COc1cc(Nc2c(C#N)cnc3cc(OCCCN4CCN(C)CC4)c(OC)cc23)c(Cl)cc1Cl [Bosutinib] (top concentration tested 10000 nM) | 7.59 | 7.02 | 7.76 | 8.54 |
| COc1cc(N2CCC(N3CCN(C)CC3)CC2)ccc1Nc1ncc(Cl)c(Nc2ccccc2P(C)(C)=O)n1 [Brigatinib] (top concentration tested 2500 nM) | 0.69 | 1.71 | 7.58 | 8.02 |

| Structure (SMILES) | drug sensitivity score (HEK293sieSTAT3(Y640F) [1]) | drug sensitivity score (HEK293sieSTAT3(wt) [2]) | drug sensitivity score (HEK293sieSTAT3(Y640F) [3]) | drug sensitivity score (HEK293sieSTAT3(wt) [4]) |
| --- | --- | --- | --- | --- |
| Cc1cc2c(F)c(Oc3ncnn4cc(OC[C@@H](C)O)c(C)c34)ccc2[nH]1 [Brivanib] (top concentration tested 1000 nM) | 0 | 0 | 0.26 | 0 |
| CCC/C=C/C=C/C(=O)O[C@H]1/C(=C/C(=O)OC)C[C@H]2C[C@H]([C@@H](C)O)OC(=O)C[C@H](O)C[C@@H]3C[C@H](OC(C)=O)C(C)(C)[C@](O)(C[C@@H]4C/C(=C/C(=O)OC)C[C@H](/C=C/C(C)(C)[C@]1(O)O2)O4)O3 [Bryostatin 1] (top concentration tested 100 nM) | 0.65 | 0.86 | 0 | 0.13 |
| Nc1cc(C(F)(F)F)c(-c2cc(N3CCOCC3)nc(N3CCOCC3)n2)cn1 [Buparlisib] (top concentration tested 10000 nM) | 0.73 | 4 | 10.5 | 12.3 |
| CS(=O)(=O)OCCCCOS(C)(=O)=O [Busulfan] (top concentration tested 100000 nM) | 0 | 1.26 | 0.42 | 4.87 |
| O=C(O)CCCCC(CCSCc1ccccc1)SCc1ccccc1 (stereo not drawn) [CPI-613] (top concentration tested 10000 nM) | 0 | 0.8 | 0.32 | 2.62 |
| C#Cc1cccc(Nc2ncnc3cc(OC)c(OCCCCCCC(=O)NO)cc23)c1 [CUDC-101] (top concentration tested 10000 nM) | 7.69 | 3.02 | 16.1 | 9.59 |
| CN(C)c1cc2c(cc1Sc1nc3c(N)nccc3n1CCNCC(C)(C)C)OCO2 [CUDC-305] (top concentration tested 10000 nM) | 7.26 | 17.6 | 20 | 24.6 |
| COc1ccc(-c2nc(N3CCOCC3)c3sc(CN(C)c4ncc(C(=O)NO)cn4)cc3n2)cn1 [CUDC-907] (top concentration tested 10000 nM) | 19.1 | 30.6 | 36.8 | 37.1 |
| Cc1nc(N)sc1-c1ccnc(Nc2ccc(N3CCOCC3)cc2)n1 [CYC-116] (top concentration tested 10000 nM) | 0 | 0.48 | 8.51 | 9.72 |
| CO[C@H]1C(=O)[C@]2(C)[C@@H](OC)C[C@H]3OC[C@@]3(OC(C)=O)[C@H]2[C@H](OC(=O)c2ccccc2)[C@]2(O)C[C@H](OC(=O)[C@H](O)[C@@H](NC(=O)OC(C)(C)C)c3ccccc3)C(C)=C1C2(C)C [Cabazitaxel] (top concentration tested 1000 nM) | 4.14 | 16.3 | 26.2 | 28.6 |
| COc1cc2nccc(Oc3ccc(NC(=O)C4(C(=O)Nc5ccc(F)cc5)CC4)cc3)c2cc1OC [Cabozantinib] (top concentration tested 1000 nM) | 0 | 0 | 0.13 | 1.9 |
| CC[C@@]1(O)C(=O)OCc2c1cc1n(c2=O)Cc2cc3ccccc3nc2-1 [Camptothecin] (top concentration tested 5000 nM) | 9.78 | 15.8 | 28.5 | 29.1 |
| C=CC(=O)Nc1cc2c(Nc3ccc(F)c(Cl)c3)ncnc2cc1OCCCN1CCOCC1 [Canertinib] (top concentration tested 10000 nM) | 6.41 | 7.96 | 6.3 | 8.37 |
| CCCCCOC(=O)Nc1nc(=O)n([C@@H]2O[C@H](C)[C@@H](O)[C@H]2O)cc1F [Capecitabine] (top concentration tested 10000 nM) | 0 | 0 | 0 | 0 |
| O=C(O)C1(C(=O)O)CCC1.[NH2-].[NH2-].[Pt+2] [Carboplatin] (top concentration tested 100000 nM) | 1.37 | 4.89 | 9.56 | 10.6 |
| CC(C)C[C@H](NC(=O)[C@H](CCc1ccccc1)NC(=O)CN1CCOCC1)C(=O)N[C@@H](Cc1ccccc1)C(=O)N[C@@H](CC(C)C)C(=O)[C@@]1(C)CO1 [Carfilzomib] (top concentration tested 1000 nM) | 26.5 | 31.9 | 31.2 | 32.8 |
| O=NN(CCCl)C(=O)NCCCl [Carmustine] (top concentration tested 10000 nM) | 0 | 0 | 3.24 | 1.45 |
| COc1cc2c(Oc3ccc4[nH]c(C)cc4c3F)ncnc2cc1OCCCN1CCCC1 [Cediranib] (top concentration tested 1000 nM) | 0 | 0.26 | 1.03 | 1.46 |
| Cc1ccc(-c2cc(C(F)(F)F)nn2-c2ccc(S(N)(=O)=O)cc2)cc1 [Celecoxib] (top concentration tested 10000 nM) | 0 | 0.02 | 0.58 | 4.14 |
| CCS(=O)(=O)N1CCN(c2ccc(Nc3ncc(C(N)=O)c(NC4CC4)n3)cc2)CC1 [Cerdulatinib] (top concentration tested 10000 nM) | 0.63 | 7.28 | 6.32 | 9.09 |
| Cc1cc(Nc2ncc(Cl)c(Nc3ccccc3S(=O)(=O)C(C)C)n2)c(OC(C)C)cc1C1CCNCC1 [Ceritinib] (top concentration tested 2500 nM) | 0 | 0.89 | 0.86 | 1.05 |
